Columns and labels:
Type in all cases: cell-based, Human
[1] = system: NK-92 cells against K-562 cells; assay: NK-92 cytolytic assay against K-562 tumor target cells (flow cytometry)
Experimental: Human NK cell line NK-92 was purchased from American Type Culture Collection (ATCC) and cultured in α-MEM Essential Medium (no ribonucleoside and deoxyribonucleoside) supplemented with 0.2 mM Myo-inositol, 0.02 mM Folic Acid, 0.1 mM β-mercaptoethanol, 1% of Non-essential Amino Acids, 1×L-Glutamax, 1% of Penicillin/Streptomycin, 12.5% of heat-inactivated Horse, and 12.5% of heat-inactivated Characterized Fetal Bovine Serum or FBS. The media was supplemented freshly with 200 IU/mL of IL-2 upon cell thawing for one passage and 100 IU/mL of IL-2 for cell expansion. Human tumor cell lines K-562 and Reh were purchased from ATCC and were cultured in RPM11640 Medium supplemented with 1% of Penicillin/Streptomycin and 10% of heat inactivated FBS. HEK293T/17 cells and HCT116 cells were cultured in Dulbecco's Modified Eagle's Medium (DMEM) High Glucose Medium supplemented with 1% of Penicillin/Streptomycin and 10% of FBS. All cell lines were maintained in 5% CO2, 37° C. incubator, except that NK-92 were maintained in 6.5% CO2 incubator at 37° C. All cell lines were maintained below 30 passages and tested regularly for mycoplasma infection using PCR.
NK-92 anti-tumor cytolysis function was assessed by flow cytometry-based analysis. Tumor target cells K-562 and Reh were labelled with cell tracker CFSE ([…]) or CMRA (5 μM) according to manufacturer's protocol at a maximum of one day before cytolysis experiment. On the experiment day, labelled tumor target cells were washed once with PBS and resuspend to desired cell concentration in complete cell media. NK-92 cells were washed and resuspended in complete media without cytokines to desired cell concentration. NK-92 cells and tumor target cells were plated at various effector: target (E:T) ratios with basal cell numbers at 50,000 cells per well in round-bottom 96-well plate and were co-cultured for 3 hours in 5% CO2, 37° C. incubator. After co-culture, cells were washed once with ice-cold PBS and stained with fixable viability dyes: Aqua (Invitrogen™) or UV Blue (Invitrogen™) or eFluor 780 (eBioscience Invitrogen™) at 1:2000 in dark for 20 mins at 4° C. Stained cells were washed twice with ice cold PBS and were fixed with 1% Paraformaldehyde (PFA) for 1 hour or 2% PFA for 30 mins in dark at 4° C. Flow cytometry sample acquisition was performed with BDO LSRFortessa™ with a UV laser at Flow Cytometry Core Facility, McGill University, and data was analyzed with FlowJo™ 10.7.1 and summarized with Prism™ 9 (GraphPad™). Calculation for % of specific cytolysis was followed by the equation: […]

[2] = system: NK-92 cells; assay: qRT-PCR of lytic granule and IFNG mRNA in NK-92; details: steady state
Experimental: Total RNA was isolated with Qiagen™ RNeasy® Mini Kit™ without DNase I on column digestion, according to the manufactures protocol. Purified total RNA was resuspended in Dnase free, Rnase free, Protease free sterile water and quantified with NanoDrop™. A260/280 was above 2.0 (data not shown). RNA integrity was checked by gel electrophoresis. 500 ng of RNA was reverse transcribed into cDNA using the SuperScript™ III Reverse Transcriptase Kit™ (Thermo Fisher Scientific™), according to the manufacturer's protocol with random primer and Oligo(dT) 20 primer. Synthesized cDNA was treated with RNaseH. qRT-PCR was performed with BioRad™ CFX96 Real Time PCR Detection™ system using FastStart Essential DNA Green Master™ according to the manufacturer's instructions. TBP and B2M was used as housekeeping genes. Delta delta Cq method was used for analyzing relative expression of gene of interests with normalization to housekeeping genes.

[3] = system: NK-92 cells; assay: Surface receptor expression on NK-92 (flow cytometry)
[4] = system: cord blood isolated NK cells; assay: Surface receptor expression on cord blood NK cells (flow cytometry); details: 30 μM, with or without K-562 stimulation E:T 1:1, three hours
From the text: Human cord blood derived NK cells (CB-NK) were kindly provided by Dr. Linda Peltier's Cellular Therapy Laboratory at McGill University Health Center (Montreal, Canada) in frozen format and were stored in liquid nitrogen tank until usage. Briefly, 1×10^7 cells were resuspended in frozen medium consisting of ImmunoCult T Cell Medium supplemented with 10% DMSO final concentration. Frozen CB-NK cells were thawed, and ex vivo expanded at Goodman Cancer Research Center (GCRC) for five days in xeno-free ImmunoCult T cell expansion media supplemented with 10% PlasmaLyte A and freshly with a cytokine cocktail of IL-2 (5 ng/mL), IL-7 (5 ng/mL), IL-15 (5 ng/mL), SCF (15 ng/mL) and FLT3/L (10 ng/mL) every two days. […] On day three, inhibitor L598 and fresh cytokine cocktails were supplemented to the cell media. NK cell population purity and immunophenotype profiling of major activating and inhibitory receptors were assessed upon receiving shipments, after ex vivo expansion for five days and after anti-tumor cytolytic assay.

[5] = system: NK-92 cells; assay: IFN-γ ELISA of NK-92 supernatants; details: 30 μM three days, with or without K-562 (E:T 6:1), vs control
Experimental: Concentration of secreted IFN-γ in supernatants of NK-92 co-cultured with K-562 cells (E:T at 6:1) or no-stimulation control (K-562 cell media) for four hours was analyzed with Human IFN-γ ELISA Kit (R&D, DIF50) according to the manufacture's protocol. Results were normalized against IFN-γ secreted by K-562 alone treated with NK-92 cell media (no cytokine) for four hours.

## 7-bromo-6-phosphono(difluoro-methyl)-3-napthalenonitrile [L598]
[1]; 10 μM with TGF-β 10 ng/mL, IL-2 media, three days
  NK-92 cytolysis against K-562 in presence of TGF-β1, vs vehicle control: continued exhibiting enhanced anti-tumor cytolysis
[1]; additional two-days treatment at same concentration
  cytolysis against K-562 after re-treatment: once more improved the anti-tumor cytolysis function to a similar level of the initial treatment
[1]; dosage increased up to 90 μM, three days, various E:T ratios
  tumor cytolysis by NK-92 against K-562 with inhibitor titration: gradual increasing of tumor cytolysis
[1]; withdrawn for three days after initial 30 μM treatment
  enhanced cytolysis against K-562 after inhibitor withdrawal: reversible
[2]; 30 μM three days
  mRNA expression of perforin, granzyme A, granzyme B and granzyme K: upregulated
[2]; 30 μM
  IFN-γ mRNA: upregulation
[3]; steady state, 10 μM
  IL-2Rα (CD25) expression: upregulated
  IL-2Rβ (CD122) expression: remained stable
[3]; with or without K-562 stimulation
  CD69 and activating receptors NKp30, NKp46, NKG2D on NK-92: upregulation
[4]
  CD69 and activating receptor expression on cord blood NK cells: upregulation
[5]
  IFN-γ protein secretion: significantly more
